Measurements from the supplement of paper PMC13380429.
Counter-ions that a name gives are not always drawn.

What was measured:
Settings in all cases: 72 h
[1] = system: U2OS; assay: cell viability relative to DMSO; higher = less toxic
[2] = system: Caco-2; assay: as above
[3] = system: HepG2; assay: as above
[4] = system: Calu-3; assay: as above
[5] = system: Vero E6; assay: as above
[6] = system: U2OS; assay: drug sensitivity score (DSS) for viability; higher = more toxic; extreme values may be limits of the assay
[7] = system: Caco-2; assay: as above
[8] = system: HepG2; assay: as above
[9] = system: Calu-3; assay: as above
[10] = system: Vero E6; assay: as above
[11] = system: U2OS; assay: relative viability EC50 (midpoint between 100% and the lowest measured viability); higher = less toxic
[12] = system: Caco-2; assay: as above
[13] = system: HepG2; assay: as above
[14] = system: Calu-3; assay: as above
[15] = system: Vero E6; assay: as above

Row | SMILES | cell viability ([1]; 1 nM) | cell viability ([1]; 10 nM) | cell viability ([1]; 100 nM) | cell viability ([1]; 1000 nM) | cell viability ([1]; 10000 nM) | cell viability ([2]; 1 nM) | cell viability ([2]; 10 nM) | cell viability ([2]; 100 nM) | cell viability ([2]; 1000 nM) | cell viability ([2]; 10000 nM) | cell viability ([3]; 1 nM) | cell viability ([3]; 10 nM) | cell viability ([3]; 100 nM) | cell viability ([3]; 1000 nM) | cell viability ([3]; 10000 nM) | cell viability ([4]; 1 nM) | cell viability ([4]; 10 nM) | cell viability ([4]; 100 nM) | cell viability ([4]; 1000 nM) | cell viability ([4]; 10000 nM) | cell viability ([5]; 1 nM) | cell viability ([5]; 10 nM) | cell viability ([5]; 100 nM) | cell viability ([5]; 1000 nM) | cell viability ([5]; 10000 nM) | drug sensitivity score [6] | drug sensitivity score [7] | drug sensitivity score [8] | drug sensitivity score [9] | drug sensitivity score [10] | relative viability EC50 [11] | relative viability EC50 [12] | relative viability EC50 [13] | relative viability EC50 [14] | relative viability EC50 [15]
1 | Oc1ccc(-c2nc3cc(O)cc(Br)c3o2)cc1 | 99.1% | 105% | 96.9% | 109% | 100% | 100% | 112% | 102% | 98.3% | 92.1% | 107% | 102% | 104% | 102% | 95.3% | 110% | 99.1% | 93.8% | 96.9% | 89.1% | 110% | 95.6% | 110% | 101% | 98.9% | 0 | 0 | 0 | 0 | 0 | > 10 µM | > 10 µM | > 10 µM | > 10 µM | > 10 µM
2 | CO/N=C1/C[C@@H](C(=O)NC[C@@H](O)c2ccccc2)N(C(=O)c2ccc(-c3ccccc3C)cc2)C1 [OT-R-antagonist-1] | 96.9% | 99.8% | 94.5% | 99.1% | 100% | 89% | 99% | 99.1% | 86.6% | 98.3% | 102% | 97.6% | 99.4% | 97.7% | 98.5% | 96.2% | 106% | 106% | 110% | 99.4% | 97% | 90.8% | 95.2% | 84.8% | 103% | 0 | 0 | 0 | 0 | 0 | > 10 µM | > 10 µM | > 10 µM | > 10 µM | > 10 µM
3 | O=C(CCBr)N1CC[N+]2(CC1)CC[N+]1(CCN(C(=O)CCBr)CC1)CC2 [spirobromin] | 96.4% | 95.2% | 97.3% | 99.4% | 97.7% | 103% | 87% | 94.2% | 109% | 108% | 91.7% | 91.5% | 96.6% | 106% | 96.4% | 110% | 100% | 94.7% | 110% | 100% | 91.2% | 101% | 96.4% | 91.5% | 106% | 0 | 0 | 0 | 0 | 0 | > 10 µM | > 10 µM | > 10 µM | > 10 µM | > 10 µM
4 | O=C(Nc1c(-c2cccs2)nc2ccccn12)c1ccc(Cl)cc1 | 104% | 96.7% | 103% | 99.3% | 103% | 99% | 95% | 104% | 97.5% | 102% | 98.9% | 95.3% | 99% | 101% | 91.4% | 106% | 104% | 103% | 86.9% | 107% | 96.7% | 103% | 96.6% | 95.1% | 92.9% | 0 | 0 | 0 | 0 | 0 | > 10 µM | > 10 µM | > 10 µM | > 10 µM | > 10 µM
5 | O=C1CCC2CCC(=O)N12 [rolziracetam] | 98% | 100% | 101% | 96.7% | 102% | 79.1% | 112% | 82.8% | 98.6% | 89.1% | 114% | 104% | 96.1% | 108% | 116% | 91% | 87% | 99.1% | 103% | 96.3% | 94.9% | 105% | 97.8% | 102% | 97.5% | 0 | 0 | 0 | 0 | 0 | > 10 µM | > 10 µM | > 10 µM | > 10 µM | > 10 µM
6 | COc1cccc(C2(O)CCCCC2CN(C)C)c1 (stereo not given) [TRAMADOL HYDROCHLORIDE] | 103% | 105% | 97.5% | 99.3% | 99.9% | 93.9% | 100% | 96.2% | 95.2% | 98.3% | 93.5% | 96.8% | 97.4% | 89.8% | 106% | 106% | 98.2% | 115% | 101% | 96.2% | 101% | 103% | 101% | 97.4% | 101% | 0 | 0 | 0 | 0 | 0 | > 10 µM | > 10 µM | > 10 µM | > 10 µM | > 10 µM
7 | CCC(=O)Nc1cccc(Oc2nc(Nc3ccc(N4CCN(C)CC4)cc3OC)ncc2Cl)c1 [WZ4003] | 97.3% | 103% | 103% | 105% | 102% | 99.3% | 105% | 102% | 99.5% | 89.3% | 100% | 94.3% | 102% | 90.9% | 104% | 97% | 97.7% | 94.8% | 96.3% | 82.5% | 101% | 100% | 102% | 96.2% | 98.6% | 0 | 0 | 0 | 0.7 | 0 | > 10 µM | > 10 µM | > 10 µM | > 10 µM | > 10 µM
